This is an account of results in patent US20200276136A1, “METHOD OF TREATING SELECTED PATIENT POPULATION EXPERIENCING DRAVET SYNDROME” (ZOGENIX INTERNATIONAL LIMITED, priority 2017, published 2020).

Series [1] relates to patients with Dravet syndrome. Particulars: cited from earlier work.
Series [2] deals with patients with Dravet syndrome. In words: Study 1 (ZX008-1501/1502), Phase 3 double-blind placebo-controlled: efficacy on seizures. Particulars: 0.8 mg/kg/day; end of the T+M Period. Type of series: in vivo, human. Here is the method: The first 119 subjects to be randomized in both identical studies combined were analyzed and reported as Study 1 (FIG. 1), covered by a Statistical Analysis Plan (SAP).
Primary and key secondary endpoints in the Study 1 SAP were pre-determined. All patients were treated twice per day over a period of 14 weeks using an oral syringe to administer the formulation. The treatment period included a two-week titration period and a 12-week maintenance period.
Patients were titrated to their target dose over two weeks, and then remained at that fixed dose for 12 weeks. The mean baseline convulsive seizure frequency across the study groups was approximately 40 seizures per month. 110 (92%) patients completed the study (85% 0.8 mg/kg/day; 100% 0.2 mg/kg/day; 93% placebo).
The proportion of patients who achieved ≥75% seizure reductions, a secondary (non-key) efficacy measure, is also presented.
The mean number of convulsive seizure free days, defined as a day for which diary data are available and no convulsive seizures have been reported, was determined for each treatment group during the Baseline and T+M Periods. […]

Each structure is given as a SMILES string.

As for `CCNC(C)Cc1cccc(C(F)(F)F)c1` (racemic) [Fenfluramine, (RS)—N-ethyl-1-[3-(trifluoromethyl)phenyl]propan-2-amine], in series [1] (Fenfluramine and Valproate, average 0.34 mg/kg/day for between 1 and 22 years), the “>50% Reduction in Seizures (responders)” value was 75%. In addition, in series [1] (long-term treatment), the “heart valve defects monitored by echocardiography” value was “No clinically relevant defects were identified” and the “types of seizures reduced” value was “effectively reduced the incidence of all types of seizures”. Further, the “reduction from Baseline in non-convulsive seizure frequency (all types)” value in series [2] turned out to be 59.1%.
